“Also recorded” adds a separate entry of the source. Like-named read-outs stand apart in the source and are kept apart here.
Assays:
TB14 [1] = biological target: T1, TB14 (UniProt C9ZDC6); assay: Binding affinities of Trp analogues toward TB14 (spectral shift titration); details: 1.5 μM enzyme, 25 mM Tris-HCl, pH 8.0
T1 construct: 14-aa linker […]; BM3R, reductase domain of P450BM3 (CYP102A1), fusion partner after the linker; inferred from Ni-NTA purification and the pET28b vector; made in house; host or cells: E. coli BL21 (DE3)-GOLD, pET28b-TxtE-BM3R
Method: (§1) The ferric heme of enzymes was then saturated with carbon monoxide (Airgas) through bubbling and the spectra of the saturated enzyme solutions were recorded. Immediately, sodium dithionite solution (30 μL, 0.5 M) was added to reduce ferric ion, and reduced spectra were taken subsequently. CO reduced difference spectra of all enzymes were created by subtracting the CO binding spectra from the reduced spectra. Data were further analyzed by Excel. […] Not more than 10 μl of substrate stock solutions prepared in the above buffer were added to the sample cuvette with an interval of 0.5 μl, and the spectra were recorded from 300 nm to 500 nm each time. The equal volume of buffer was added to the reference cuvette. The changes in absorbance (AA) were determined by subtracting the absorbance at ˜420 nm from that at ˜390 nm. Data were then fitted to the equation of ΔA=ΔAmax[L]/(Kd+[L]) using GraphPad Prism 4.

TxtE [2] = biological target: T2, TxtE (Streptomyces scabiei, UniProt C9ZDC6); assay: biochemical; type: binding, S. scabies; design: inferred from Ni-NTA purification and the pET28b vector; made in house; host or cells: E. coli BL21 (DE3)-GOLD, pET28b; details: for Interaction with TxtE in spectroscopic analysis (in words): Type I spectral shift
Method: as §1

TB14 [3] = biological target: T3, TB14 (UniProt C9ZDC6+P14779); assay: Binding affinities of Trp analogues toward TB14 (spectral shift titration); details: for Interaction with TB14 in spectroscopic analysis (in words): Type I spectral shift; for Kd: read-out: TB14 Kd, 1.5 μM enzyme, 25 mM Tris-HCl, pH 8.0
T3 construct: 14-aa linker […]; BM3R, reductase domain of P450BM3 (CYP102A1), fusion partner after the linker; inferred from Ni-NTA purification and the pET28b vector; made in house; host or cells: E. coli BL21 (DE3)-GOLD, pET28b-TxtE-BM3R
Method: as §1

TB14 [4] = biological target: T3, TB14; assay: Nitration of Trp and its analogues by TB14 (45 min, HPLC); type: biochemical; details: FIG. 8; for Nitration activity of TB14 toward the substrate (in words): 0.5 mM substrate, 45 min
Method: (§2) The reactions were prepared and then incubated at 20° C., 300 rpm for 45 minutes. All experiments were repeated at least three times.
(§3) After centrifugation, 10 μl solutions were analyzed by HPLC. […] All reactions were independently repeated at least three times. […] All experiments were performed at least in triplicate.

TxtE [5] = biological target: T2, TxtE; type: biochemical, S. scabies; design: inferred from Ni-NTA purification and the pET28b vector; made in house; details: 0.5 mM substrate, 45 min, FIG. 8
Method: as §2, §3

[6] = read-out: TxtE Kd, 1.5 μM enzyme, 25 mM Tris-HCl, pH 8.0

**Q.** `Cc1cccc2[nH]cc(CC(N)C(=O)O)c12` (racemic) [Example 4-Me-Tr, 4-Me-DL-Tryptophan] was tested. Which Kd (TB14 [1]) did it give?
**A.** 13.5 ± 0.98 µM

**Q.** And the Kd (TxtE [2])?
**A.** 9.58 ± 0.36 µM

**Q.** What does the source list for `N[C@@H](Cc1c[nH]c2ncccc12)C(=O)O` [7-Azatryptophan]?
**A.** Kd (TB14 [1]): 25.5 ± 0.58 µM; Kd (TxtE [2]; [6]): 16.8 ± 0.28 µM

**Q.** `N[C@@H](Cc1c[nH]c2ccc(O)cc12)C(=O)O` [Example 5-OH-L-Trp, 5-OH-L-Trp] was tested. Which Kd (TB14 [1]) did it give?
**A.** 453 ± 15.5 µM

**Q.** And the Kd (TxtE [2])?
**A.** 341 ± 26.4 µM

**Q.** What does the source list for `N[C@H](Cc1c[nH]c2ccccc12)C(=O)O` [D-Trp]?
**A.** Kd (TB14 [1]): 470 ± 25.3 µM; Kd (TxtE [2]): 432 ± 17.2 µM

**Q.** `c1ccc2[nH]ccc2c1` [indole] was tested. Which “Interaction with TB14 in spectroscopic analysis (in words)” value (TB14 [3]) did it give?
**A.** no detectable level of interaction

**Q.** What about the “Interaction with TxtE in spectroscopic analysis (in words)” value (TxtE [2]) of the same compound?
**A.** no detectable level of interaction

**Q.** Which results are given for `N[C@@H](Cc1c[nH]c2ccccc12)C(=O)O` [Trp]?
**A.** Nitration activity of TB14 toward the substrate (in words) (TB14 [4]): nitrated; Nitration activity of TxtE toward the substrate (in words) (TxtE [5]): nitrated

**Q.** With `NC(Cc1c[nH]c2cccc(F)c12)C(=O)O` (racemic) [Example 4-F-Trp, 4-F-DL-Trp] as the compound, how does the Kd (TB14 [3]) read?
**A.** 175 ± 12.9 µM

**Q.** What about the Kd (TxtE [2]; [6]) of the same compound?
**A.** 189 ± 11.1 µM

**Q.** For `N[C@H](CO)Cc1c[nH]c2ccccc12` [L-tryptophanol], which Kd (TB14 [1]) is on record?
**A.** 280 ± 43.2 µM

**Q.** And the Kd (TxtE [2])?
**A.** 221 ± 32.4 µM

**Q.** What does the source list for `NCCc1c[nH]c2ccccc12` [Tryptamine]?
**A.** Kd (TB14 [3]): 59.8 ± 7.88 µM; Kd (TxtE [2]; [6]): 68.4 ± 6.19 µM

**Q.** Which results are given for `Cc1cccc2c(CC(N)C(=O)O)c[nH]c12` (racemic) [Example 7-Me-Trp, 7-Me-DL-Trp]?
**A.** Kd (TB14 [1]): 10.6 ± 0.75 µM; Kd (TxtE [2]): 12.9 ± 0.99 µM

**Q.** For `N[C@@H](Cc1c[nH]c2ccccc12)C(=O)O` [L-Trp, L-tryptophan], which Kd (TB14 [1]) is on record?
**A.** 17.4 ± 0.95 µM

**Q.** And the Kd (TxtE [2]; [6])?
**A.** 24.8 ± 1.11 µM

**Q.** Which results are given for `N[C@@H](Cc1c[nH]c2ccc(F)cc12)C(=O)O` [Example 5-F-L-Trp, 5-F-L-Trp]?
**A.** Kd (TB14 [3]): 77.5 ± 5.74 µM; Nitration activity of TB14 toward the substrate (in words) (TB14 [4]): good activity; also recorded: comparable to Trp; Nitration activity of TxtE toward the substrate (in words) (TxtE [5]): good activity; also recorded: best substrate of TxtE; Kd (TxtE [2]; [6]): 84.2 ± 4.37 µM

**Q.** `O=C(O)Cc1c[nH]c2ccccc12` [3-Indoleacetic acid] was tested. Which Kd (TxtE [2]) did it give?
**A.** > 17000 µM

**Q.** How did the Kd (TxtE [2]) turn out when `O=C(O)C(O)Cc1c[nH]c2ccccc12` (stereo not shown) [Indole-3-lactic acid] was run?
**A.** > 7000 µM

**Q.** Which Kd (TB14 [1]) does the source give for `Cc1ccc2[nH]cc(CC(N)C(=O)O)c2c1` (racemic) [Example 5-Me-Trp, 5-Me-DL-Trp] here?
**A.** 29.9 ± 1.03 µM

**Q.** What about the “Nitration activity of TB14 toward the substrate (in words)” value (TB14 [4]) of the same compound?
**A.** good activity

**Q.** And the “Nitration activity of TxtE toward the substrate (in words)” value (TxtE [5])?
**A.** good activity

**Q.** And the Kd (TxtE [2])?
**A.** 34.7 ± 0.99 µM

**Q.** `Cc1cccc2[nH]cc(CC(N)C(=O)O)c12` (racemic) [Example 4-Me-DL-Trp] was tested. Which “Interaction with TB14 in spectroscopic analysis (in words)” value (TB14 [3]) did it give?
**A.** more tightly than 4-F-DL-Trp

**Q.** And the “Nitration activity of TB14 toward the substrate (in words)” value (TB14 [4])?
**A.** good activity

**Q.** And the “Nitration by TB14 favoured over 4-F-DL-Trp” value (TB14 [4])?
**A.** about 8 times

**Q.** And the “Nitration activity of TxtE toward the substrate (in words)” value (TxtE [5])?
**A.** good activity

**Q.** What about the “Interaction with TxtE in spectroscopic analysis (in words)” value (TxtE [2]) of the same compound?
**A.** more tightly than 4-F-DL-Trp

**Q.** For `NCCc1c[nH]c2ccc(O)cc12` [Serotonin], which Kd (TB14 [3]) is on record?
**A.** 310 ± 38.5 µM

**Q.** And the Kd (TxtE [2]; [6])?
**A.** 322 ± 31.4 µM

**Q.** How did the Kd (TB14 [1]) turn out when `COc1ccc2[nH]cc(CC(N)C(=O)O)c2c1` (racemic) [Example 5-MeO-Trp, 5-MeO-DL-Trp] was run?
**A.** 25.8 ± 1.84 µM

**Q.** And the Kd (TxtE [2])?
**A.** 29.1 ± 1.16 µM

**Q.** With `O=C(O)C1Cc2c([nH]c3ccccc23)CN1` (stereo not drawn) [2,3,4,9-Tetrahydro-1H-β-carboline-3-carboxynate] as the compound, how does the Kd (TB14 [1]) read?
**A.** 731 ± 86 µM

**Q.** What about the Kd (TxtE [2]) of the same compound?
**A.** 579 ± 44.4 µM

**Q.** Which results are given for `N[C@@H](Cc1c[nH]c2cc(F)ccc12)C(=O)O` (racemic) [Example 6-F-Trp, 6-F-DL-Trp]?
**A.** Kd (TB14 [3]): 65.3 ± 4.49 µM; Nitration activity of TB14 toward the substrate (in words) (TB14 [4]): good activity; Nitration activity of TxtE toward the substrate (in words) (TxtE [5]): good activity; Kd (TxtE [2]; [6]): 73.4 ± 6.06 µM

**Q.** For `CC(N)(Cc1c[nH]c2ccccc12)C(=O)O` (racemic) [α-Me-Trp, α-Me-DL-Trp], which Kd (TB14 [1]) is on record?
**A.** 94.7 ± 8.52 µM

**Q.** And the Kd (TxtE [2])?
**A.** 100 ± 4.3 µM

**Q.** For `O=C(O)c1c[nH]c2ccccc12` [Indole-3-carboxylic acid], which Kd (TxtE [2]) is on record?
**A.** > 9000 µM

**Q.** What does the source list for `O=C(O)C(=O)Cc1c[nH]c2ccccc12` [Indole-3-pyruvic acid]?
**A.** Kd (TB14 [3]): 478 ± 31.6 µM; Kd (TxtE [2]; [6]): 386 ± 42.5 µM
